According to patent US20150087722A1, “TREATMENT FOR BREAST TUMOR CELL METASTASIS” (China Medical University, priority 2012, published 2015):
Read-outs that look alike come from different tables or passages of the source.

Key:
[1] = tested on: Normal Endothelial Cell (EAhy926 cell strain); assay: MTT cell viability assay; assay type: cell-based, human
Experimental: (§1) The cell viability was determined by a method of […] (MTT assay). The test method for assaying cell viability refers to steps provided by Parada-Turska et al.
The breast tumor cells MDA-MB-231 were inoculated in a 24-well plate (2.5×10^5 cells/well), and the next day after cells were adhered to the wall of the plate, the cells were washed with PBS. 1% FBS-DMEM culture medium was then added so as to synchronize cells. The next day compound II having different concentrations were added into the wells, and the cells were subsequently cultured in an atmosphere of 5% CO2 at 37° C. for 24 h. The cells were washed with PBS once, and 400 μl MTT agent was added in each well so as to react for 4 h. […] 200 μl supernatant was taken from the well and then added into a 96-well microplate, so as to measure the absorbance at 570 nm.
In the MTT assay, the umbilical vein endothelial cells (EAhy926 cell strain) was planted 80 percent full and cultured in a 1×HAT culture medium including 15% FBS-DMEM, 1% glutamine and 1% PSN (used for screening cells having the characteristic of cell fusion). […] The culture medium was replaced in 24 h before the experiment, and the number of cells was counted by a hemocytometer. […] The supernatant was taken and putted into a 96-well microplate, and then the absorbance was measured at a wavelength of 570 nm.

breast tumor cells MCF-7 = assay: MTT cell viability assay; assay type: cell-based; conditions: Homo sapiens, MCF7
Experimental: (§2) The breast tumor cells (MDA-MB-231, MDA-MB-435, MDA-MB-453, MDA-MB-468 and MCF-7) were commercially obtained from the bioresource collection and research center (BCRC), and were cultured in a 10% FBS-DMEM culture medium (i.e., a DMEM culture medium including 10% fetal bovine serum (FBS)). The human breast cell MCF-10A was cultured in a 5% FBS-DMEM culture medium (including F12, insulin, hydrocortisol and epidermal growth factor). An environment of 5% CO2 was kept in the incubator at a constant temperature of 37° C. When a certain number of cells were generated in culture, the culture medium was removed after being centrifuged for 10 min at a rate of 900 rpm. The culture medium was replaced in 24 h before the experiment, and the number of cells was counted by a hemocytometer.
as §1
(§3) The breast tumor cells MDA-MB-231 were inoculated in a 24-well plate (2.5×10^5 cells/well), and the next day after cells were adhered to the wall of the plate, the cells were washed with PBS. 1% FBS-DMEM culture medium was then added so as to synchronize cells. The next day compound II having different concentrations were added into the wells, and the cells were subsequently cultured in an atmosphere of 5% CO2 at 37° C. for 24 h. The cells were washed with PBS once, and 400 μl MTT agent was added in each well so as to react for 4 h. Then 400 μl 10% SDS was added in each well so as to react for 12 h. 200 μl supernatant was taken from the well and then added into a 96-well microplate, so as to measure the absorbance at 570 nm.

[2] = tested on: human normal breast cells MCF-10A; assay: MTT cell viability assay; assay type: cell-based
Experimental: as §2, §1, §3

[3] = tested on: PI3K and Akt in breast tumor cells; assay: western blotting of PI3K and Akt and phosphorylation; assay type: cell-based, human; conditions: 2 μM, 0-120 min
Experimental: The steps of western blotting include: washing cells with PBS twice at 4° C.; adding a lysis buffer and rubbing the cells by a rubbr policeman so as to lyse cells; putting the lysed cell solution into a 1.5 ml microcentrifuge tube and shaking for 1 min; centrifuging at 12000 rpm for 10 min and taking the supernatant; measuring concentration of the protein through a Bio-Rad protein assay kit; and storing the remained extracted protein solution at −70° C.; taking 100 μg protein solution and adding a SDS/protein loading buffer having the same volume, where the SDS/protein loading buffer has a concentration two times larger than the protein solution; boiling the mixture of the protein solution and the SDS/protein loading buffer at 100° C. for 10 min; cooling and loading the protein samples in each hole of gel; adjusting the voltage to 100 V and running the protein samples on the gel until the tracking dye in the sample buffer reaches the bottom of the gel; and subsequently transferring the protein from the gel using electrophoresis. […] Then luminescence image equipment was used, where the PVDF was placed onto a black metal plate by a plastic pincer and the face including protein was upwards, a 1:1 mixed Chemiluminesent Substrate was added into the membrane and the exposure time depends on the fluorescence intensity of antibodies. […]

[4] = tested on: human normal breast cells MCF-10A stimulated by TNF-α/TGF-β; assay: F-actin immunofluorescence staining (cell morphology); assay type: cell-based; conditions: 2 μM with TNF-α/TGF-β 10 ng/ml, 24 h
Text: FIG. 5 illustrates photographs taken at a 200× field under a fluorescence microscope, where a primary antibody F-actin is used and the cells are stained through the immunofluenrence staining method. Specifically, the photographs noted as “Control” in the first column show the morphologies of the human normal breast cells MCF-10A without being treated with the compound I and TNF-α/TGF-β. The photographs noted as “TNF-αTGF-β” in the second column show the morphologies of the human normal breast cells MCF-10A treated with TNF-α/TGF-β wherein the concentrations of TNF-α and TGF-β were 10 ng/ml. The photographs noted as “Compound I (2 μM)” in the third column show the morphologies of the human normal breast cells MCF-10A treated with the compound I having a concentration of 2 μM. The photographs noted as “TNF-α/TGF-β Compound I (2 μM)” in the fourth column show the morphologies of the human normal breast cells MCF-10A treated with the compound I, TNF-α and 10 TGF-β for 24 h, wherein the concentrations of the compound I, TNF-α and 10 TGF-β were 2 μM, 10 ng/ml and 10 ng/ml, respectively.

SMILES	cell viability ([1]; EAhy926, concentration above 10 μM, 10 ng/mL TNF-α/TGF stimulation, FIG. 18)	IC50 ([1]; Homo sapiens, EA.hy 926, viability, EAhy926 cell strain) [µM]	IC50 (breast tumor cells MCF-7; 0-40 μM for 24 h, FIG. 1A, read-out: IC50 for inhibiting the MCF-7) [µM]	IC50 (breast tumor cells MCF-7; viability, MCF-7 cell strain, Table 1, read-out: IC50) [µM]	IC50 ([2]; MCF-10A, 0-40 μM for 24 h, FIG. 1A, read-out: IC50 for inhibiting the normal breast cells MCF-10A) [µM]	IC50 ([2]; viability, MCF-10A cell strain, Table 1, read-out: IC50) [µM]	phosphorylation of PI3K and Akt [3]	protein expression of PI3K and Akt [3]	cell morphology (F-actin staining) [4]
COC1=C(OC)C(=O)C(C)=C(C)C1=O [compound II]	significantly decreased	35.1	~30	27.7	~25	24.1	probably inhibited	not affected	
COC1=C(OC)C(=O)C(C)=CC1=O [compound I]									still was epithelial-like
